From patent publication US20150164967A1, “Personal Care Products Containing Extracts of Rosemary” (Kemin Industries, Inc., priority 2013, published 2015)

Tested on: vesperlysine-like and pentosidine-like AGEs from albumin glycation
Experiment: Inhibition of AGE formation from albumin glycation (BSA + D-ribose, fluorescence)
Format: biochemical, bovine
Experimental: Following solutions were prepared for the assay: Reagent A: Phosphate buffer pH 7.0: 0.03 M KH2PO4 and 0.03 M K2HPO4 in ultrapure water (Millipore® Synergy® UV); Reagent B: 1.3 mg/mL aminoguanidine hydrochloride in phosphate buffer; Reagent C: 32 mg/mL Rosamox-Z in phosphate buffer; Reagent D: 30 mg/mL Zemea® Propanediol in phosphate buffer; Reagent E: 30 mg/mL BSA in phosphate buffer; Reagent F: 1.5 M D-ribose in phosphate buffer.
All the diluted samples (Sample B1-B5) were used for the AGE reaction.
Samples C1-C5 were diluted from the sample stock (reagent C) solution. Samples C6-C9 were diluted from Sample C5. All the diluted samples (Sample C1-C9) were used for the AGE reaction. Test samples D were diluted the same way as test samples C.
(Following Sero, L. et al. (2013) Tuning a 96-Well Microtiter Plate Fluorescence-Based Assay to Identify AGE Inhibitors in Crude Plant Extracts. Molecules. 18, 14320-14339.) A 96-well plate was prepared as follows (each sample was prepared in triplicate): Blank wells—50 μL BSA stock (reagent E) solution and 100 μL phosphate buffer (reagent A); Negative control wells—50 μL BSA stock (reagent E) and 50 μL diluent (Reagent A) to three empty wells; Positive control wells—50 μL BSA stock (reagent E) and 50 μL Aminoguanidine hydrochloride samples (Sample B1-B5); All treatments—50 μL BSA stock (reagent E) and 50 μL treatments (Sample C1-C9 and D1-D9); 50 μL D-ribose solutions (Reagent F) were added to every well except the blank wells.
The plates were read for fluorescence at λexc 370 nm λem 440 nm for versperlysines-like AGEs and λexc 335 nm λem 385 nm for pentosidine like AGEs. The plate was wrapped with aluminum foil to avoid light exposure and incubated at 37° C. and read again after 24 hours.
% inhibition was calculated as ((control 24 hours−control 0 hours)−(treatment 24 hours−treatment 0 hours))/(control 24 hours−control 0 hours).
FIG. 10 is a chart of the inhibition effect of Rosamox-Z on the formation of vesperlysine-like and pentosidine-like AGEs from albumin glycation. […]

Row | SMILES | predicted 1050 for these reactions (worked out from the Rosamox-Z value and 4% carnosic acid content) | inhibition effect for pentosidine-like AGEs (0-15 mg/mL, λexc 335 nm λem 385 nm, 24 h at 37° C.) | promoting effect for vesperlysines-like AGEs (0-15 mg/mL, λexc 370 nm λem 440 nm, 24 h at 37° C.)
1 | CC(C)c1cc2c(c(O)c1O)[C@@]1(C(=O)O)CCCC(C)(C)[C@@H]1CC2 [carnosic acid] | 0.4 to 0.6 mg/mL | – | –
2 | [2H]C([2H])(O)C([2H])([2H])C([2H])([2H])O [Zemea® Propanediol, Propanediol] | – | around 10% | around 5%
